pIC50: −log10 of the molar value. “And” between values parts separate entries of the source, which are not always exact repeats. Equal entries are not always repeated. “Also recorded” adds a separate entry of the source. Each block holds one compound with its values, some of them ahead of it.
Columns and labels:
[1] = system: MDA-MB-231; assay: MTT-dye reduction antiproliferative assay, MDA-MB-231; type: cell-based
Excerpt: (§1) Breast cell lines (MCF-10A, MCF-7, and MDA-MB-231) were purchased from the American Type Culture Collection—ATCC (Manassas, VA, USA). MCF-7 and MDA-MB-231 were cultivated in Dulbecco’s modified Eagle’s medium (DMEM), supplemented with 10% fetal bovine serum (FBS), 1% sodium pyruvate, and 1% MEM non-essential amino acids (NEAA) without antibiotics. The non-tumorigenic cell line (MCF-10A) was cultivated in DMEM medium (Sigma-Aldrich, St. Louis, MO, USA) and supplemented with 10% FBS, 1% sodium pyruvate, 1% non-essential amino acids (NEAA), 20 ng/mL human epidermal growth factor (hEGF), 10 μg/mL insulin, and 0.5 μg/mL hydrocortisone without antibiotics. All cell lines were maintained in a humidified atmosphere with 5% CO2 at 37 °C.
(§2) The antiproliferative activity was tested via using the standard MTT-dye reduction assay described by Mosmann. The method is based on the metabolism of the tetrazolium salt MTT to insoluble formazan. The formazan absorption was registered using a microplate reader at λ = 540 nm. The measured absorption is an indicator of cell viability and metabolic activity.

[2] = system: MCF-10A; assay: MTT-dye reduction antiproliferative assay, MCF-10A; type: cell-based; conditions: for pIC50: Homo sapiens
Excerpt: as §1, §2

[3] = system: MCF-7; assay: MTT-dye reduction antiproliferative assay, MCF-7; type: cell-based; conditions: for increase in IC50: drug + Iscador Qu, concentration not given
Excerpt: as §1, §2

[4] = system: MDA-MB-231; assay: Cell cycle analysis by propidium iodide staining (FACS), MDA-MB-231; type: cell-based; conditions: for effect on cell cycle of combination vs anticancer drug alone: drug + Iscador Qu (selected combinations); for effect on cell cycle: treatment alone
Procedure: (§3) After trypsinization, the cells (MCF7, MDA-MB-231, and MCF10A) were resuspended in medium + 10% FCS and centrifuged (1000 rpm, 5 min); then, the pellet was suspended in PBS (1 mL) and fixed with EtOH. After suspension in 2.5 mL pre-cold 70% EtOH, the cells were incubated on ice for 15 min. The staining procedure was as follows: The pellet was suspended in a 500 μL PI solution in PBS (final concentration of PI 1 μg/mL) and 0.1 mg/mL RNAse A, and 0.05% Triton X-100 was added. Following the incubation for 10 min at 37 °C, the cells were transferred to the flow cytometer, and cell fluorescence was measured. The samples were measured by flow cytometry (LSR II, BD Biosciences, Franklin Lakes, NJ, USA) and analyzed using BD FACS DIVA software v. 6.1.3 (BD Biosciences). The control samples of all cell lines underwent the same treatment but without the adding any anticancer drugs or Iscador Qu.
(§4) In the search of the mechanism of action, the cell cycle arrest induced after treatment with the selected combinations was analyzed. The cell aliquots were collected, and FACS analyses were used to detect the effects of the treatments. A propidium iodide staining assay was performed (Figures S1 and S2).

[5] = system: microtubule; design: method as in PMID 7670132; conditions: cited from earlier work
[6] = system: MCF-7; assay: Cell cycle analysis by propidium iodide staining (FACS), MCF-7; type: cell-based; conditions: for effect on cell cycle of combination vs anticancer drug alone: drug + Iscador Qu (selected combinations); for effect on cell cycle: mono treatment
Procedure: as §3, §4

[7] = MDA-MB-231, drug + Iscador Qu 40 µg/mL vs drug alone
[8] = MDA-MB-231, drug + Iscador Qu 80 µg/mL vs drug alone
[9] = drug + Iscador Qu 10 µg/mL vs drug alone
[10] = drug + Iscador Qu 20 µg/mL vs drug alone
[11] = Iscador Qu both concentrations (50 or 100 µg/mL) or not specified
[12] = drug + Iscador Qu 50 µg/mL vs drug alone
[13] = drug + Iscador Qu 100 µg/mL vs drug alone
[14] = higher Iscador Qu concentration (20 µg/mL)
[15] = Iscador Qu both concentrations (10 and 20 µg/mL) or not specified
[16] = MDA-MB-231, Iscador Qu both concentrations (40 and 80 µg/mL) or not specified

Compound: O=c1[nH]cc(F)c(=O)[nH]1 [5-Fluorouracyl, 5-Fluorouracil]
- pIC50 ([1]; Homo sapiens, MDA-MB-231, drug alone): 5.69
- fold decrease in IC50 [1, 7]: 1.2 fold
- fold decrease in IC50 [1, 8]: 1.5 fold
- reduction in IC50 [1, 8]: about 30%
- lesser reduction in IC50 in MDA-MB-231 compared to MCF-7 ([1]; combination with Iscador Qu): 33%
- effect of combined treatment with Iscador Qu on IC50 / antiproliferative effect ([2]; Iscador Qu 50 µg/mL): did not change the antiproliferative properties
- effect of combined treatment with Iscador Qu on IC50 / antiproliferative effect ([2]; Iscador Qu 100 µg/mL): slightly decreased
- pIC50 ([3]; Homo sapiens, MCF7, drug alone): 5.17
- fold decrease in IC50 [3, 9]: 1.5 fold
- fold decrease in IC50 [3, 10]: 2.7 fold
- reduction in IC50 [3, 10]: ~65%

Compound: N.N.[Cl][Pt][Cl] [Cisplatin, cis-diamminedichloroplatinum (II)]
- Relative Change of IC50 (%) [1, 7]: 56.77%
- Relative Change of IC50 (%) [1, 8]: 43.80%
- increase in IC50 [1, 8]: 44%
- fold increase in IC50 (reduced antiproliferative effect) ([1]; MDA-MB-231, drug + Iscador Qu, concentration not given): 1.5 fold and 1.6 fold
- effect on cell cycle of combination vs anticancer drug alone [4]: did not alter the effect
- effect on cell cycle [4]: blocked the cells in the S phase
- effect of combined treatment with Iscador Qu on IC50 / antiproliferative effect [2, 11]: enhanced the antiproliferative effect
- Relative Change of IC50 (%) [3, 9]: 8.36%
- Relative Change of IC50 (%) [3, 10]: −29.37%
- reduction in IC50 [3, 10]: 30%

Compound: CC(=O)O[C@@]12CO[C@@H]1C[C@H](O)[C@@]1(C)C(=O)[C@H](O)C3=C(C)[C@@H](OC(=O)[C@H](O)[C@@H](NC(=O)OC(C)(C)C)c4ccccc4)C[C@@](O)([C@@H](OC(=O)c4ccccc4)[C@H]21)C3(C)C [Docetaxel]
- fold decrease in IC50 [1, 7]: more than 2 fold
- fold decrease in IC50 [1, 8]: 4 fold
- reduction in IC50 [1, 8]: 72%
- effect on cell cycle of combination vs anticancer drug alone [4]: did not alter the effect
- effect on cell cycle [4]: cell cycle arrest in the G0 phase
- pIC50 ([2]; drug + Iscador Qu 50 µg/mL): ~8.38
- pIC50 ([2]; drug + Iscador Qu 100 µg/mL): ~8.38
- pIC50 ([2]; single treatment with drug): 8.29
- effect of combined treatment with Iscador Qu on IC50 / antiproliferative effect [2, 11]: slightly reduced
- fold decrease in IC50 [2, 12]: 1.2 fold
- fold decrease in IC50 [2, 13]: 1.2 fold
- potency as an inhibitor of microtubule depolymerization compared to Paclitaxel [5]: 2 fold
- effect of combined treatment with Iscador Qu on IC50 / antiproliferative effect [3, 14]: very slight IC50 decrease
- effect of combined treatment with Iscador Qu on IC50 / antiproliferative effect ([3]; low Iscador Qu concentration (10 µg/mL)): IC50 increase

Compound: COc1cccc2c1C(=O)c1c(O)c3c(c(O)c1C2=O)C[C@@](O)(C(=O)CO)C[C@@H]3O[C@H]1C[C@H](N)[C@H](O)[C@H](C)O1 [Doxorubicin]
- reduction in IC50 dose [1, 7]: 21%
- fold decrease in IC50 [2, 12]: about 2 fold
- fold decrease in IC50 [2, 13]: about 2 fold
- fold decrease in IC50 [3, 9]: about 2 fold
- reduction in IC50 dose [3, 9]: 50%
- fold decrease in IC50 [3, 10]: about 2 fold

Compound: COc1cccc2c1C(=O)c1c(O)c3c(c(O)c1C2=O)C[C@@](O)(C(=O)CO)C[C@@H]3O[C@H]1C[C@H](N)[C@@H](O)[C@H](C)O1 [Epirubicin]
- fold decrease in IC50 [1, 7]: 2 fold
- fold decrease in IC50 [1, 8]: 2 fold
- reduction in IC50 [1, 8]: 47%
- pIC50 ([2]; drug alone): 3.41
- fold decrease in IC50 [2, 13]: 2 fold
- effect of combined treatment with Iscador Qu on IC50 / antiproliferative effect [3, 15]: did not exhibit significant sensitivity; also recorded: No effect

Compound: CCc1c2c(nc3ccc(OC(=O)N4CCC(N5CCCCC5)CC4)cc13)-c1cc3c(c(=O)n1C2)COC(=O)[C@]3(O)CC [Irinotecan]
- effect of combined treatment with Iscador Qu on IC50 / antiproliferative effect [1, 16]: very slight IC50 decrease; also recorded: No significant alteration in IC50
- effect of combined treatment with Iscador Qu on IC50 / antiproliferative effect [2, 11]: did not affect IC50
- effect of combined treatment with Iscador Qu on IC50 / antiproliferative effect [3, 15]: did not affect IC50; also recorded: No effect

Compound: CN(Cc1cnc2nc(N)nc(N)c2n1)c1ccc(C(=O)N[C@@H](CCC(=O)O)C(=O)O)cc1 [Methotrexate]
- fold decrease in IC50 [1, 8]: 1.5 fold
- reduction in IC50 [1, 8]: about 30%
- effect of combined treatment with Iscador Qu on IC50 / antiproliferative effect ([2]; Iscador Qu 50 µg/mL): did not reduce the IC50 dose
- effect of combined treatment with Iscador Qu on IC50 / antiproliferative effect ([2]; Iscador Qu 100 µg/mL): slightly increased
- effect of combined treatment with Iscador Qu on IC50 / antiproliferative effect [3, 15]: No effect
- effect of combined treatment with Iscador Qu on IC50 / antiproliferative effect ([3]; Iscador Qu both concentrations (10 and 20 µg/mL) or not specified, listed as methotrexate): did not exhibit any sensitivity

Compound: O=C(c1cc(Cc2n[nH]c(=O)c3ccccc23)ccc1F)N1CCN(C(=O)C2CC2)CC1 [Olaparib]
- effect of combined treatment with Iscador Qu on IC50 / antiproliferative effect ([1]; MDA-MB-231, Iscador Qu 40 µg/mL): negative treatment effect
- effect of combined treatment with Iscador Qu on IC50 / antiproliferative effect [1, 16]: increase in IC50 dose
- increase in IC50 [1, 8]: 22%
- effect on cell cycle of combination vs anticancer drug alone [6]: no significant difference
- effect on cell cycle [6]: arrest in the G2/M phase
- effect of combined treatment with Iscador Qu on IC50 / antiproliferative effect [2, 11]: slight decrease in IC50 dose
- effect of combined treatment with Iscador Qu on IC50 / antiproliferative effect [3, 15]: antagonistic effect; also recorded: increase in IC50 dose
- increase in IC50 [3]: 37%
- effect of combined treatment with Iscador Qu on IC50 / antiproliferative effect [3, 14]: negative treatment effect

Compound: O=C1[O][Pt]2([NH][C@@H]3CCCC[C@H]3[NH]2)[O]C1=O [Oxaliplatin]
- effect of combined treatment with Iscador Qu on IC50 / antiproliferative effect [1, 16]: increased the antiproliferative effect
- Relative Change of IC50 (%) [1, 7]: −48.45%
- fold decrease in IC50 [1, 7]: 1.9 fold
- Relative Change of IC50 (%) [1, 8]: −69.56%
- fold decrease in IC50 [1, 8]: 3.3 fold
- reduction in IC50 [1, 8]: 70%
- effect on cell cycle of combination vs anticancer drug alone [6]: no significant difference
- effect on cell cycle [6]: arrest in the G2/M phase
- effect of combined treatment with Iscador Qu on IC50 / antiproliferative effect [2, 11]: increased the antiproliferative effect
- effect of combined treatment with Iscador Qu on IC50 / antiproliferative effect [3, 15]: increased the antiproliferative effect
- Relative Change of IC50 (%) [3, 9]: −47.30%
- fold decrease in IC50 [3, 9]: ~2 fold
- Relative Change of IC50 (%) [3, 10]: −80.76%
- fold decrease in IC50 [3, 10]: 5.2 fold
- reduction in IC50 [3, 10]: 81%

Compound: CN(C)C(=O)c1cc2cnc(Nc3ccc(N4CCNCC4)cn3)nc2n1C1CCCC1 [Ribociclib]
- effect of combined treatment with Iscador Qu on IC50 / antiproliferative effect [1, 16]: did not significantly affect; also recorded: No significant alteration in IC50
- effect of combined treatment with Iscador Qu on IC50 / antiproliferative effect [2, 11]: did not significantly affect
- fold decrease in IC50 [3, 9]: 2 fold
- fold decrease in IC50 [3, 10]: 3 fold
- reduction in IC50 [3, 10]: ~65%

- increase in IC50 [3]: 31%
Compound: CC/C(=C(\c1ccccc1)c1ccc(OCCN(C)C)cc1)c1ccccc1 [Tamoxifen]
